# Data taken from article PMC7051184, “C9orf72 arginine-rich dipeptide repeat proteins disrupt karyopherin-mediated nuclear import” (eLife, 2020).
# Where a SMILES comes first, the peptide text is derived from it. Where no end group is shown, it is not given here.
# How the values were obtained:
# [1] = tested on: nuclear transport of NLS-NES shuttle proteins; details: synthetic peptide added to HeLa cells in the culture media; ref Vanneste et al., 2019; cited from earlier work
# Source text: (§1) Additional studies have since investigated mechanisms by which individual DPRs may disrupt the nuclear transport apparatus. […] PR20 was previously shown by STE ...
# proteasome = details: ref Gupta et al., 2017; cited from earlier work
# Source text: Throughout this study, we observed marked differences in the behavior of GR and PR. […] Based on their divergent molecular properties, the differing behavior of GR and PR is not surprising. On one hand, bot ...
# [2] = tested on: Nup54 and 98 FG-domain polymers; details: ref Shi et al., 2017; cited from earlier work
# Source text: The rate of passive transport through the NPC is governed by the FG-Nup barrier ([Mohr et al., 2009]; [Timney et al., 2016]; [Frey et al., 2018]), in addition to local concentrations of importin β and RanGTP ([Ma et al., 2012]; [Kapinos et al., 2017]). R-DPR/FG-domain interactions are predicted based on the propensity of arginines to undergo cation-pi interactions with aromatic phenylalanine rings (reviewed by [Gallivan and Dougherty, 1999]; [Banani et al., 2017]). Indeed, previous interactome studies predicted R-DPR interactions with FG-Nups including Nup54, 62, 98, 153, and 214 ([Lin et al., ...
# [3] = tested on: nuclear import of NLS-BSA; details: permeabilized HeLa cells; ref Shi et al., 2017; cited from earlier work
# Source text: as §1
# [4] = molecular target: T1, importin β-mediated nuclear import of Rango (Homo sapiens, UniProt Q14974); assay: Fractionated Rango transport assay (aggregates present or supernatant only), HeLa; format: cell-based; details: with AF647-labeled importin β
# T1 sequence (Q14974 whole entry): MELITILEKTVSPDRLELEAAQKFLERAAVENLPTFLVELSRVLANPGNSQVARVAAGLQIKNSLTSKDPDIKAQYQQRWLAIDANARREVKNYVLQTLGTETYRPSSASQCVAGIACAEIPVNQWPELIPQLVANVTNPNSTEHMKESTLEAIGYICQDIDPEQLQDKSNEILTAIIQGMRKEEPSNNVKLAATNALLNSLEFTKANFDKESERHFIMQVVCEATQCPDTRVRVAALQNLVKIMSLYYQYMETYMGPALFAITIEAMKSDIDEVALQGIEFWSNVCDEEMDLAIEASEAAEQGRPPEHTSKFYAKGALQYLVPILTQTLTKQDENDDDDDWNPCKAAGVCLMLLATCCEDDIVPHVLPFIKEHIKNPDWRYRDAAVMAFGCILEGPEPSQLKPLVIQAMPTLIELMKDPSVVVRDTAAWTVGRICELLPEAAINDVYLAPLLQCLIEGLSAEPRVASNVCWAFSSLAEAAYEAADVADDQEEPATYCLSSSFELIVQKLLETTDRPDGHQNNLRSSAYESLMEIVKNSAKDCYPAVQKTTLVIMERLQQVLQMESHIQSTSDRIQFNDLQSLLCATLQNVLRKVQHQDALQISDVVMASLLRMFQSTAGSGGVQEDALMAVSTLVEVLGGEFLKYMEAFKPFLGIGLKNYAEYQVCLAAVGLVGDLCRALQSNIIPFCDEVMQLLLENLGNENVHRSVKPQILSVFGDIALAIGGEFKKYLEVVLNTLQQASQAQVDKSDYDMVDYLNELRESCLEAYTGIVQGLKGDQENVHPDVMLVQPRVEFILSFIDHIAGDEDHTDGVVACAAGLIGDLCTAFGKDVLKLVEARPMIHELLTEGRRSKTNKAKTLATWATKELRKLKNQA
# Procedure: A single cell-derived clone of HeLa cells (ATCC, Manassas, VA; mycoplasma negative and validated by STR profiling) were maintained in OptiMEM (Gibco/ThermoFisher) with 4% FBS and plated on uncoated optical glass-bottom 96 well plates, at appropriate densities to reach 70–90% confluence on the day of the transport assay. To permeabilize, cells were rinsed for 2 min in ice-cold PBS, and permeabilized on ice for 10 min in 15–30 µg/mL digitonin (Calbiochem, San Diego, CA) in permeabilization buffer (PRB, 20 mM HEPES, 110 mM KOAc, 5 mM Mg(OAc)2, 0.5 mM EGTA, 250 mM sucrose, pH 7.5, with protease inhibitor cocktail). Following permeabilization, cells were placed on ice and rinsed 3 × 5 min in transport buffer (TRB, 20 mM HEPES, 110 mM KOAc, 2 mM Mg(OAc)2, 5 mM NaOAc, 0.5 mM EGTA, 250 mM sucrose, pH 7.3, with protease inhibitor cocktail). The optimal digitonin concentration varied by cell density and passage number, and was optimized prior to each set of assays for the ability to permeabilize the majority of plasma membranes while maintaining nuclear exclusion of a 70 kD fluorescent dextran (ThermoFisher).
# (§2) Reaction mixes consisting of 2.5 mg/ml lysate, ER, fluorescent cargo (200 nM Rango and YFP-M9-CFP, 500 nM GST-GFP-NLS), Hoechst, DPRs, RNA, or inhibitors (100 µM importazole (IPZ, Millipore Sigma); 0.8 mg/mL wheat germ agglutinin (WGA, Millipore Sigma) were assembled on ice during cell permeabilization. DPRs or inhibitors were allowed to equilibrate in cell lysate for at least 30 min prior to initiation of transport. Every plate included: (1) Cargo alone: fluorescent cargo, but no ER or lysate, (2) Untreated controls: fluorescent cargo, ER, and lysate, and (3) Inhibitor: fluorescent cargo, ER, lysate, and IPZ (Rango and GST-GFP-NLS reactions) or WGA (YFP-M9-CFP). Preassembled transport reactions were then transferred onto permeabilized cells via multichannel pipette, and allowed to proceed at room temperature for 2 hr (Rango, YFP-M9-CFP) or 4 hr (GST-GFP-NLS). Cells were fixed in 4% paraformaldehyde/PBS, rinsed 2x with PBS, and transferred to 50% glycerol/PBS for immediate imaging.
# For a subset of neuron transport assays, transport was monitored live via time lapse imaging every 5 min for 30 min. […]
# Multiple non-overlapping fields per well (4 for time-lapse imaging, 9-16 for fixed imaging), were captured at 40x on an ImageXpress Micro XLS high-content microscope (Molecular Devices, San Jose, CA), and the ratio of nuclear to cytoplasmic fluorescence intensity was calculated using the MetaXpress automated translocation-enhanced module. […] Resulting N/C ratios were expressed as % untreated, to permit comparisons across biological replicates.
# [5] = molecular target: T1, importin β-mediated nuclear import of Rango; assay: Permeabilized cell nuclear import assay, Rango, HeLa; format: cell-based
# [6] = molecular target: T1, importin β-mediated nuclear import of Rango; assay: Permeabilized cell nuclear import assay, Rango, mouse primary cortical neurons; format: cell-based; details: importin β small molecule inhibitor control
# Source text: All animal procedures were approved by the Johns Hopkins Animal Care and Use Committee. Timed pregnant C57BL/6J females (Jackson Laboratory, Bar Harbor, ME) were sacrificed by cervical dislocation at E16, cortex dissociated, and cells plated at 50,000/well on poly-D-lysine/laminin-coated, optical glass-bottom 96-well plates. Growth medium consisted of Neurobasal supplemented with B27, Glutamax, and penicillin/streptomycin (Gibco/ThermoFisher). At 5–7 days in vitro, neurons were rinsed in prewarmed PBS and permeabilized for 4 min. at 37° in a hypotonic solution containing […] Tris-HCl pH 7.5 (to cause osmotic swelling) and 50–150 mg/ml BSA (for molecular crowding/mechanical support). Following permeabilization, cells were placed on ice and rinsed 2 × 5 min in transport buffer (TRB, 20 mM HEPES, 110 mM KOAc, 2 mM Mg(OAc)2, 5 mM NaOAc, 0.5 mM EGTA, 250 mM sucrose, pH 7.3, with protease inhibitor cocktail). All rinse and assay buffers were supplemented with 50 mg/mL BSA. The optimal hypotonic buffer and BSA concentration varied by batch, and was optimized prior to each set of assays for ability to permeabilize the majority of plasma membranes while maintaining nuclear exclusion of a 70 kD fluorescent dextran (ThermoFisher).
# Concentrated whole cell lysates were prepared from HEK293T cells (ATCC, mycoplasma negative and validated by STR profiling), grown in 150 mm dishes and sonicated on ice in 1X TRB in the presence of protease inhibitor cocktail (Roche). The lysates were clarified (15 min, 14000 g, 4C), snap frozen in liquid nitrogen, and stored in single use aliquots at −80C. Total HEK cell RNA was extracted using miRNEasy kits according to the manufacturers’ protocol, with DNase digestion (Qiagen). RNA concentration was measured by Nanodrop (ThermoFisher), and all 260/280 ratios were verified to be > 2.0. Energy regeneration (ER) mix consisted of 100 µM ATP, 100 µM GTP, 4 mM creatine phosphate, and 20 U/mL creatine kinase (Roche).
# as §2
# For a subset of neuron transport assays, transport was monitored live via time lapse imaging every 5 min for 30 min. In a subset of HeLa assays, transport reactions were centrifuged before use at 14,000g × 15 min to separate soluble and insoluble fractions. In another variation, the transport lysate + DPR and ER mix was allowed to preincubate on the permeabilized HeLa cells for 1 hour prior to initiation of transport, rinsed 1x with TRB, and transport initiated with fresh lysate, cargo, and ER.
# Multiple non-overlapping fields per well (4 for time-lapse imaging, 9-16 for fixed imaging), were captured at 40x on an ImageXpress Micro XLS high-content microscope (Molecular Devices, San Jose, CA), and the ratio of nuclear to cytoplasmic fluorescence intensity was calculated using the MetaXpress automated translocation-enhanced module. Raw data were filtered to exclude autofluorescence and the mean N/C ratio from wells without ER or cell lysate was subtracted from all values.
compound,measurement,setting,value
N=C(N)NCCC[C@H](NC(=O)CNC(=O)[C@H](CCCNC(=N)N)NC(=O)CNC(=O)[C@H](CCCNC(=N)N)NC(=O)CNC(=O)[C@H](CCCNC(=N)N)NC(=O)CNC(=O)[C@H](CCCNC(=N)N)NC(=O)CNC(=O)[C@H](CCCNC(=N)N)NC(=O)CNC(=O)[C@H](CCCNC(=N)N)NC(=O)CNC(=O)[C@H](CCCNC(=N)N)NC(=O)CNC(=O)[C@H](CCCNC(=N)N)NC(=O)CNC(=O)[C@H](CCCNC(=N)N)NC(=O)CNC(=O)[C@H](CCCNC(=N)N)NC(=O)CNC(=O)[C@H](CCCNC(=N)N)NC(=O)CNC(=O)[C@H](CCCNC(=N)N)NC(=O)CNC(=O)[C@H](CCCNC(=N)N)NC(=O)CNC(=O)[C@H](CCCNC(=N)N)NC(=O)CNC(=O)[C@H](CCCNC(=N)N)NC(=O)CNC(=O)[C@H](CCCNC(=N)N)NC(=O)CNC(=O)[C@H](CCCNC(=N)N)NC(=O)CNC(=O)[C@H](CCCNC(=N)N)NC(=O)CNC(=O)[C@H](CCCNC(=N)N)NC(=O)CN)C(=O)O [GR20],Effect on nuclear transport of fluorescent NLS-NES shuttle proteins,[1],unable to impede nuclear transport
N=C(N)NCCC[C@H](NC(=O)[C@@H]1CCCN1C(=O)[C@H](CCCNC(=N)N)NC(=O)[C@@H]1CCCN1C(=O)[C@H](CCCNC(=N)N)NC(=O)[C@@H]1CCCN1C(=O)[C@H](CCCNC(=N)N)NC(=O)[C@@H]1CCCN1C(=O)[C@H](CCCNC(=N)N)NC(=O)[C@@H]1CCCN1C(=O)[C@H](CCCNC(=N)N)NC(=O)[C@@H]1CCCN1C(=O)[C@H](CCCNC(=N)N)NC(=O)[C@@H]1CCCN1C(=O)[C@H](CCCNC(=N)N)NC(=O)[C@@H]1CCCN1C(=O)[C@H](CCCNC(=N)N)NC(=O)[C@@H]1CCCN1C(=O)[C@H](CCCNC(=N)N)NC(=O)[C@@H]1CCCN1C(=O)[C@H](CCCNC(=N)N)NC(=O)[C@@H]1CCCN1C(=O)[C@H](CCCNC(=N)N)NC(=O)[C@@H]1CCCN1C(=O)[C@H](CCCNC(=N)N)NC(=O)[C@@H]1CCCN1C(=O)[C@H](CCCNC(=N)N)NC(=O)[C@@H]1CCCN1C(=O)[C@H](CCCNC(=N)N)NC(=O)[C@@H]1CCCN1C(=O)[C@H](CCCNC(=N)N)NC(=O)[C@@H]1CCCN1C(=O)[C@H](CCCNC(=N)N)NC(=O)[C@@H]1CCCN1C(=O)[C@H](CCCNC(=N)N)NC(=O)[C@@H]1CCCN1C(=O)[C@H](CCCNC(=N)N)NC(=O)[C@@H]1CCCN1C(=O)[C@H](CCCNC(=N)N)NC(=O)[C@@H]1CCCN1)C(=O)O [PR20] (H-PRPRPRPRPRPRPRPRPRPRPRPRPRPRPRPRPRPRPRPR-OH; N-terminus and C-terminus assumed),Inhibition of proteosomal degradation,proteasome,shown to inhibit proteosomal degradation
same,Binding to FG-domain polymers,[2],bind and stabilize Nup54 and 98 FG-domain polymers
same,Effect on nuclear import of NLS-BSA,[3],impeded nuclear import of NLS-BSA
same,Effect on nuclear transport of fluorescent NLS-NES shuttle proteins,[1],unable to impede nuclear transport
AF488-GR10: GR10 labeled with Alexa Fluor 488 C5-maleimide (GRGRGRGRGRGRGRGRGRGRKC(Alexa Fluor 488 C5‑maleimide)),Location of AF488-labeled DPR in fractionated transport reactions (confocal),[4],fully sedimented into the pellet
"OCCCCCCO [1,6-hexanediol]",Reversal of mild nuclear import inhibition,[5]; 25 µM PR10,"neither 1,6-hexanediol nor exogenous importin β could reverse mild nuclear import inhibition"
same,Effect on Rango import at baseline,[5]; no DPR,caused dose-dependent inhibition at baseline
AF488-PR10: PR10 labeled with Alexa Fluor 488 C5-maleimide (PRPRPRPRPRPRPRPRPRPRKC(Alexa Fluor 488 C5‑maleimide)),Location of AF488-labeled DPR in fractionated transport reactions (confocal),[4],remained in the supernatant and was present at the nuclear envelope
"CC(Nc1nc(N2CCCC2)nc2ccccc12)c1ccccc1 (stereo not shown) [importazole, Importazole, reference compound]",Effect on Rango import in permeabilized neurons,[6],can be inhibited
